{"source": "patent US11899022B2", "about": "“Multiplexed proteomics and predictive drug candidate assessment” (The General Hospital Corporation, priority 2017, dated 2024)", "key": {"[1]": {"tested_on": "breast cancer cell lines with dysregulated centromere complex", "test": "Drug response (AUC) of cell lines with vs without dysregulation in the centromere complex", "assay_type": "cell-based", "conditions": "41 breast cancer cell lines, AUC ratio, FIG. 32B", "experimental": "(§1) The drug candidates were screened at different concentrations, and the response to each drug candidate was measured as an area under the curve (AUC). Three known complexes—the BRCA1-associated genome surveillance complex, the centromere, and the proteasome—were selected from the CORUM database, and for each complex, the cell lines evaluated were separated into a first group in which cell lines carried dysregulated protein-protein interactions on any of the proteins in the complex, and a second group in which cell lines carried no dysregulations on any of the proteins in the complex.\n(§2) Each figure is a plot showing how protein-protein interaction dysregulation in one of the selected complexes affects the responses of the evaluated breast cancer cell lines to different drug candidates. In each plot, every data point represents a different drug candidate. The horizontal axis in each plot represents the base 2 logarithm of the ratio of the drug candidate response in cell lines with dysregulation to the drug candidate response in cell lines without dysregulation. The vertical axis in each plot, which corresponds to the base 10 logarithm of the Grubbs test p-value, represents the significance of the drug candidate response difference."}, "Aurora Kinases": {"tested_on": "Aurora Kinases", "conditions": "cited from earlier work"}, "[2]": {"tested_on": "breast cancer cell lines with dysregulated proteasome complex", "test": "Drug response (AUC) of cell lines with vs without dysregulation in the proteasome complex", "assay_type": "cell-based", "conditions": "41 breast cancer cell lines, AUC ratio, FIG. 32C", "experimental": "as §1\nas §2, with “difference. […]” for “difference.”"}, "LDKR1-4 cell lines": {"tested_on": "LDKR1-4 cell lines", "test": "Ceritinib sensitivity of resistant clones LDKR1-4", "assay_type": "cell-based", "experimental": "(§3) In the particular study reported here, resistance to the small molecule ALK inhibitor Ceritinib was studied. The patient-derived cell line H3122 is a NSCLC line with an EML4-ALK fusion, and it is sensitive to Ceritinib. To simulate the clinical development of therapeutic resistance following initial treatment, this cell line was cultured over a period of 6 months with low but increasing doses of Ceritinib. […] These clones were expanded and comprise the cell lines LDKR1-4.\n(§4) FIG. 5 is a schematic diagram showing the development of the cell lines."}, "H3122 cell line": {"tested_on": "H3122 cell line", "test": "Ceritinib sensitivity of parental H3122 cell line", "assay_type": "cell-based", "conditions": "Homo sapiens, NCI-H3122; ALK-positive H3122 parental cell line", "experimental": "as §3, §4"}, "ALK": {"biological_target": "ALK (Homo sapiens, UniProt Q9UM73)", "sequence (Q9UM73 with tags, fused parts or gaps)": "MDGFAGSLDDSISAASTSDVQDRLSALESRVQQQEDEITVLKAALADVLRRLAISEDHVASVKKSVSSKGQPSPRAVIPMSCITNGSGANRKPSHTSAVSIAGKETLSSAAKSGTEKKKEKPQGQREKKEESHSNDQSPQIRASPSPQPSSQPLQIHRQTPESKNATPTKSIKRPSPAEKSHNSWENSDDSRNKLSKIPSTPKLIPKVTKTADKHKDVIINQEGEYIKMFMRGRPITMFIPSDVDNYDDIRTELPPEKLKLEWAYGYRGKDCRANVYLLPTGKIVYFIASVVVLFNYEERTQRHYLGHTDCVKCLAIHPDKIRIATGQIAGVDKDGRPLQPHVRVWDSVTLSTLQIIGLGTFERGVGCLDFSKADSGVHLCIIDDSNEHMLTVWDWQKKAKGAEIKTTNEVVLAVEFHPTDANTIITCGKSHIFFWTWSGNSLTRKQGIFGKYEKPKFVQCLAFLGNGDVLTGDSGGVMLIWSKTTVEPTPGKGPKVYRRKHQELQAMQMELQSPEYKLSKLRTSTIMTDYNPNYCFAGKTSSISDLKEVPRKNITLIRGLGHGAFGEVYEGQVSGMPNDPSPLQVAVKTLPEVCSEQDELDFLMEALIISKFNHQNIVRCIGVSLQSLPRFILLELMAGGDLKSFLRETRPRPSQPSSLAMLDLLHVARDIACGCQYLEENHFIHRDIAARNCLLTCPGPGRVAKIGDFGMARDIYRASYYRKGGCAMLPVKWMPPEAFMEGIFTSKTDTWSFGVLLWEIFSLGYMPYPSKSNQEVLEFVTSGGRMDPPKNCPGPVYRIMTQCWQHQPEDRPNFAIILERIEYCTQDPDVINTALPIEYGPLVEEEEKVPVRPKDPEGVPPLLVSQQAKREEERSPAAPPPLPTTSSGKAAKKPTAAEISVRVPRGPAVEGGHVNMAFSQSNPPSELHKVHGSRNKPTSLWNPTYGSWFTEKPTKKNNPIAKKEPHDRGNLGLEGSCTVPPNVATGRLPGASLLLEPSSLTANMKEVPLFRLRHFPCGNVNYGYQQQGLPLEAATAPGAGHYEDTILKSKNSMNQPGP", "test": "Proteomic/phosphoproteomic profiling of ALK phosphorylation after Ceritinib treatment", "assay_type": "cell-based", "experimental": "The H3122 parental and LDKR1-4 cell lines were each grown in culture with or without the addition of Ceritinib for 24 hours, and harvested cells were subsequently processed for both proteomic and phosphoproteomic analyses. Specifically, each of the cell lines was cultured in RPMI-1640 media supplemented with 10% FBS, 100 units/mL penicillin, and 100 μg/mL streptomycin. Cells were treated for 24 hours with 300 nM Ceritinib (also known as LDK378). Cells were collected, and the cell pellets were resuspended in mammalian lysis buffer and lysed by passage through a 21 gauge needle. The lysate was centrifuged at 15,000×g for 5 minutes at 4° C., and insoluble debris was discarded.\nThe lysates were then prepared for mass spectrometry analysis. Samples were reduced with DTT, alkylated with iodoacetamide, and precipitated with methanol/chloroform. […] Samples were quenched with 1% TFA and desalted using Sep-Pak C18 (SPE) cartridges (obtained from Waters Corp., Milford, MA). The peptide concentration of each sample was determined using a BCA assay.\nFor phosphoproteomic analysis, 2.0 mg of digested peptides were enriched for phosphopeptides using titanium dioxide beads, labeled with TMT10-plex reagents, and further enriched with a phosphotyrosine antibody. Specifically, 8 mg of titanium dioxide beads were incubated with the peptide in binding buffer (2 M lactic acid in 50% ACN/50% H2O) for 1 hour with gentle shaking. […] Samples were acidified and desalted over Sep-Pak C18 SPE cartridges."}, "[3]": {"tested_on": "breast cancer cell lines with dysregulated BRCA1-associated genome surveillance complex", "test": "Drug response (AUC) of cell lines with vs without dysregulation in the BRCA1-associated genome surveillance complex", "assay_type": "cell-based", "conditions": "41 breast cancer cell lines, AUC ratio dysregulated/not dysregulated, FIG. 32A", "experimental": "as §1, §2"}, "[4]": {"biological_target": "T1, polo-like Kinase 4 (PLK4) (Homo sapiens, UniProt O00444)", "T1 sequence (O00444 1-970)": "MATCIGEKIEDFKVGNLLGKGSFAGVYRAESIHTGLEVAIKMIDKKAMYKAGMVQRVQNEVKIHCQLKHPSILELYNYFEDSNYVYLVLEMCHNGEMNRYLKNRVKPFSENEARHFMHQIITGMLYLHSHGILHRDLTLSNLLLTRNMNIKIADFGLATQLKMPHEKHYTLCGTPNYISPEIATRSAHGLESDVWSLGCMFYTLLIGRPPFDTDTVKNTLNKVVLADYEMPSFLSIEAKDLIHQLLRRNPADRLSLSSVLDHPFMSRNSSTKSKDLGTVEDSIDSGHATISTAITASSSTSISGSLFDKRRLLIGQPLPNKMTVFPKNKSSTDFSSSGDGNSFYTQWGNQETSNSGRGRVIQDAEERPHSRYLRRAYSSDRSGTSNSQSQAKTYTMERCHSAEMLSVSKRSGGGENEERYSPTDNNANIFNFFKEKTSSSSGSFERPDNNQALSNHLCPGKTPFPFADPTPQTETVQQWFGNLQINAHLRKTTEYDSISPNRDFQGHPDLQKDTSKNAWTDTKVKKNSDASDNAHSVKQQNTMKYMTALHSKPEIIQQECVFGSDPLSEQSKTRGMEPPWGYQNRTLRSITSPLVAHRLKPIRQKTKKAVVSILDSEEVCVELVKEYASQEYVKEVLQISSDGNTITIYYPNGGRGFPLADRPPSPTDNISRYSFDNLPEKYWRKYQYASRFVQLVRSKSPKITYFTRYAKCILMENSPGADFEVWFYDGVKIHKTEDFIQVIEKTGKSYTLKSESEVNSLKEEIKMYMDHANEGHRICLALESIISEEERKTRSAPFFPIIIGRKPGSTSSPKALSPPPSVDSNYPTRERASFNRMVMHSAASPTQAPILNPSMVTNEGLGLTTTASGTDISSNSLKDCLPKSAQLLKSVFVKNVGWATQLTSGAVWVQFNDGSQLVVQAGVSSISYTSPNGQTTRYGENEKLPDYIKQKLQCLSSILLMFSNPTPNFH", "conditions": "cited from earlier work"}, "[5]": {"conditions": "parental H3122, 300 nM Ceritinib, 24 hours, ratio to parental with no drug"}}, "data": [{"compound": "O=C(CCCCCCNC(=O)c1cnc(N(c2ccccc2)c2ccccc2)nc1)NO", "note": "[ACY-1215]", "values": [{"measurement": "effect of dysregulation in the centromere complex on cell line response to drug", "setting": "[1]", "result": "sensitize"}]}, {"compound": "Cc1cc(Nc2nc(N[C@@H](C)c3ncc(F)cn3)ncc2Cl)n[nH]1", "note": "[AZD1480]", "values": [{"measurement": "inhibition of Aurora Kinases", "setting": "Aurora Kinases", "result": "potently inhibit"}]}, {"compound": "C#Cc1cccc(Nc2ncnc3cc(OC)c(OCCCCCCC(=O)NO)cc23)c1", "note": "[CUDC-101]", "values": [{"measurement": "effect of dysregulation in the centromere complex on cell line response to drug", "setting": "[1]", "result": "sensitize"}]}, {"compound": "CC(C)C[C@H](NC(=O)[C@H](CCc1ccccc1)NC(=O)CN1CCOCC1)C(=O)N[C@@H](Cc1ccccc1)C(=O)N[C@@H](CC(C)C)C(=O)[C@@]1(C)CO1", "note": "[Carfilzomib]", "values": [{"measurement": "effect of dysregulation in the proteasome complex on cell line response to drug", "setting": "[2]", "result": "densensitized"}]}, {"compound": "Cc1cc(Nc2ncc(Cl)c(Nc3ccccc3S(=O)(=O)C(C)C)n2)c(OC(C)C)cc1C1CCNCC1", "note": "[Ceritinib]", "values": [{"measurement": "IC50 relative to the parental sensitive cell line", "setting": "LDKR1-4 cell lines; four resistant clones vs parental H3122", "result": "at least twenty times higher"}, {"measurement": "IC50", "setting": "LDKR1-4 cell lines; resistant clones LDKR1-4", "result": "1490 to 3900", "unit": "nM"}, {"measurement": "IC50", "setting": "H3122 cell line", "result": 53, "unit": "nM"}, {"measurement": "inhibition of ALK activity in resistant cell lines", "setting": "ALK; LDKR1-4, Ceritinib treatment", "result": "continued to be effective at inhibiting ALK activity in at least three of the four resistant cell lines"}, {"measurement": "ALK Thr 1506/Tyr 1507/Ser 1509 phosphorylation upon drug treatment", "setting": "ALK; [5]", "result": "decreasing fourfold"}, {"measurement": "ALK Tyr 1078 phosphorylation upon drug treatment", "setting": "ALK; [5]", "result": "decreased"}]}, {"compound": "Nc1ccn([C@@H]2O[C@H](CO)[C@@H](O)C2(F)F)c(=O)n1", "note": "[Gemcitabine]", "values": [{"measurement": "effect of dysregulation in the genome surveillance complex on cell line response to drug", "setting": "[3]", "result": "sensitize"}]}, {"compound": "O=C(/C=C/c1ccc(CN(CCO)CCc2c[nH]c3ccccc23)cc1)NO", "note": "[LAQ824]", "values": [{"measurement": "effect of dysregulation in the centromere complex on cell line response to drug", "setting": "[1]", "result": "sensitize"}]}, {"compound": "NC(=O)Nc1sc(-c2ccc(F)cc2)cc1C(N)=O", "note": "[TPCA-1]", "values": [{"measurement": "inhibition of Aurora Kinases", "setting": "Aurora Kinases", "result": "potently inhibit"}]}, {"compound": "COc1cc2c(Oc3ccc(NC(=O)C4(C(=O)Nc5ccc(F)cc5)CC4)cc3F)ccnc2cc1OCCCN1CCOCC1", "note": "[XL-880, foretinib]", "values": [{"measurement": "inhibition of polo-like Kinase 4 (PLK4)", "setting": "[4]", "result": "inhibits"}, {"measurement": "inhibition of Aurora Kinases", "setting": "Aurora Kinases", "result": "potently inhibit"}]}, {"compound": "Bleomycin", "values": [{"measurement": "effect of dysregulation in the genome surveillance complex on cell line response to drug", "setting": "[3]", "result": "sensitize"}]}]}
